Columns and labels:
[1] = system: pre-synaptic dopaminergic receptors; test: hypokinesia in the normal animal, mice or rats; format: in vivo
[2] = system: dopaminergic post-synaptic receptors of the striatum; test: stereotyped movements in rats (Quinton and Halliwell scale); format: in vivo; conditions: for total stereotypy score in 3 hours: 6 observations; for total stereotypy score in 3 hours / total stereotypy score: groups of 8 rats; for stimulating activity on the dopaminergic post-synaptic receptors of the striatum: rats, from stereotypy scores
Procedure: The research for stereotyped movements, proof of the existence of a direct post-synaptic dopaminergic stimulating activity, has been carried out in rats using the scale described by R. M. QUINTON and H. HALLIWELL, Nature, 200, 1963, 178-179. The experiment lasts 3 hours, the animals are observed every 30 minutes. The groups are made up of 8 rats each, and the results are the total scores of the accumulated individual scores of the stereotypies observed during the experiment (6 observations).

[3] = system: conditioned avoidance response; test: conditioned avoidance response inhibition in the rat (shuttle box avoidance); format: in vivo, male WISTAR rats
Procedure: The method used is based on the works of COURVOISIER et al., Arch. Int. Pharmacodyn. 92, 305-361, (1953), and of JANSSEN et al., Arzneim. Forsch. 15, 104-117, (1965).
The experiments are carried out on groups of 10 to 20 male WISTAR rats weighing between 300 g and 400 g. Each animal is submitted to two day-sessions per week, one after treatment carried out on the substance studied at a given dose, 30 minutes before the session, the other following the administration of a solute of NaCl (0.154M)--I.P. route in both cases. The compound of Example 1 has been administered in solution in sterile bi-distilled water, at doses of 6.25, 12.5, 25, 50 and 75 mg/kg. I.P.
Piribedil chosen as reference product has been administered at the same doses and by the same route. This method is used to show the anti-psychotic activity of a substance. It is known that anti-psychotic agents inhibit the conditioned shunning response, without modifying the escape response following an electric shock (Unconditioned response).

[4] = system: dopaminergic inhibitory auto-receptors; test: motor depressant effects (hypokinesia) in mice; format: in vivo; conditions: all doses studied from 20 to 160 mg/kg I.P.
Description: The motor depressant effects of the compound of Example 1 have been studied in mice.

[5] = system: d-amphetamine-induced dopaminergic hyperactivity; test: inhibition of d-amphetamine-induced motor phenomena in mice (activograph); format: in vivo
Procedure: the administration of d-amphetamine, at a dose of 1 to 3 mg/kg I.P. in mice, releases the supervention of motor phenomena registered using an activograph.

[6] = system: hypersensitive post-synaptic dopaminergic receptors; test: rotations in rats with unilateral lesions of the nigro-neostriatal tract (Ungerstedt); format: in vivo, rat
Procedure: The central dopaminergic activity for the compounds of the present invention was determined, especially by measuring the rotations of the rat according to the method of Ungerstedt U., European Journal of Pharmacology, 5, (1968) 107-110. For the compounds of the present invention, administered at a dose of 25 mg/kg subcutaneously, up to 380 rotations were obtained in 45 minutes.
Experiments have also been carried out on rats with unilateral lesions of the nigro-neostriatal tract.
These lesions are produced by local micro-injection of 6-hydroxy dopamine into the black substance of the rat, according to U. Ungerstedt; Europ. J. Pharmacol. 5, 1968, 107-110 and Advances in Neurology, vol. 3, Raven Press., New York (1973).
This treatment leads to a degeneration of the dopaminergic neurons coming from the nigra-substantia, going towards the neostriatum.
Furthermore, following this denervation, the post-synaptic receptors situated above the pithed tract, i.e., above the synapse which leads to the pithed neuron, become hypersensitive to the pharmacological dopaminergic agents administered. This direct activation of hypersensitive dopaminergic receptors then produces the supervention of a motor rotation behaviour in treated rats.
When the left nigro-striatal tract is destroyed, the rotations occur towards the right, on the opposite side to the lesion. The experimental groups each contain from 5 to 6 animals.

[7] = system: dopaminergic inhibitory auto-receptors; test: electro-encephalogram / sleep in rats; format: in vivo

C1=COc2cc(CN3CCN(c4ncccn4)CC3)ccc2O1 [Example 1, 1-(benzodioxin-6-ylmethyl)-4-(pyrimidin-2-yl)piperazine]
hypokinesia in the normal animal [1]: only provokes an hypokinesia
stereotyped movements ([2]; 80 mg/kg I.P. or S.C.): very few stereotyped movements
total stereotypy score in 3 hours ([2]; 80 mg/kg I.P.): 52
total stereotypy score in 3 hours ([2]; 80 mg/kg S.C.): 49
stereotypy in normal rats ([2]; normal rats): practically no sterotypy
stimulating activity on the dopaminergic post-synaptic receptors of the striatum [2]: no important stimulating activity
Crossings, % over 20 ([3]; 6.25 mg/kg I.P.): -3%
Escape response, % in relation to control animals ([3]; 6.25 mg/kg I.P.): -14%
Escape response, % over 20 ([3]; 6.25 mg/kg I.P.): 1.5%
Escape response, Number over 20 ([3]; 6.25 mg/kg I.P.): 0.30
Shunning response, % in relation to control animals ([3]; 6.25 mg/kg I.P.): +0.25%
Shunning response, % over 20 ([3]; 6.25 mg/kg I.P.): 98.5%
Shunning response, Number over 20 ([3]; 6.25 mg/kg I.P.): 19.7
Crossings, Number over 20 ([3]; 6.25 mg/kg I.P., * = P < 0.05): 20.6
Crossings, % over 20 ([3]; 12.50 mg/kg I.P.): -15%
Escape response, % in relation to control animals ([3]; 12.50 mg/kg I.P.): +71%
Escape response, % over 20 ([3]; 12.50 mg/kg I.P.): 3%
Escape response, Number over 20 ([3]; 12.50 mg/kg I.P.): 0.6
Shunning response, % in relation to control animals ([3]; 12.50 mg/kg I.P.): -1%
Shunning response, % over 20 ([3]; 12.50 mg/kg I.P.): 97%
Shunning response, Number over 20 ([3]; 12.50 mg/kg I.P.): 19.4
Crossings, Number over 20 ([3]; 12.50 mg/kg I.P., * = P < 0.05): 18.0
Crossings, % over 20 ([3]; 25 mg/kg I.P.): -9%
Escape response, % in relation to control animals ([3]; 25 mg/kg I.P.): +71%
Escape response, % over 20 ([3]; 25 mg/kg I.P.): 3%
Escape response, Number over 20 ([3]; 25 mg/kg I.P.): 0.6
Shunning response, % in relation to control animals ([3]; 25 mg/kg I.P.): -1%
Shunning response, % over 20 ([3]; 25 mg/kg I.P.): 97%
Shunning response, Number over 20 ([3]; 25 mg/kg I.P.): 19.4
Crossings, Number over 20 ([3]; 25 mg/kg I.P., * = P < 0.05): 19.2
Crossings, % change in relation to control animals ([3]; 50 mg/kg I.P.): +8%
Escape response, % in relation to control animals ([3]; 50 mg/kg I.P.): +814%
Escape response, % over 20 ([3]; 50 mg/kg I.P.): 16%
Shunning response, % in relation to control animals ([3]; 50 mg/kg I.P.): -15%
Shunning response, % over 20 ([3]; 50 mg/kg I.P.): 84%
diminution of the number of shunning responses ([3]; 50 mg/kg I.P.): 15%
increase of the escape responses ([3]; 50 mg/kg I.P.): 800%
Crossings, Number over 20 ([3]; 50 mg/kg I.P., * = P < 0.05): 22.9
Escape response, Number over 20 ([3]; 50 mg/kg I.P., * = P < 0.05): 3.2
Shunning response, Number over 20 ([3]; 50 mg/kg I.P., * = P < 0.05): 16.8
Crossings, % change in relation to control animals ([3]; 75 mg/kg I.P.): +63%
Escape response, % in relation to control animals ([3]; 75 mg/kg I.P.): +533%
Escape response, % over 20 ([3]; 75 mg/kg I.P.): 9.5%
Shunning response, % in relation to control animals ([3]; 75 mg/kg I.P.): -8%
Shunning response, % over 20 ([3]; 75 mg/kg I.P.): 90.5%
diminution of the number of shunning responses ([3]; 75 mg/kg I.P.): 8%
increase of the escape responses ([3]; 75 mg/kg I.P.): 500%
increase of the number of spontaneous crossings ([3]; 75 mg/kg I.P.): 63%
mobility depressor, sedative, cataleptigenic effect ([3]; 75 mg/kg I.P.): neither a mobility depressor effect, nor sedative effect, nor cataleptigenic effect
Crossings, Number over 20 ([3]; 75 mg/kg I.P., * = P < 0.05): 25.4
Escape response, Number over 20 ([3]; 75 mg/kg I.P., * = P < 0.05): 1.9
Shunning response, Number over 20 ([3]; 75 mg/kg I.P., * = P < 0.05): 18.1
conditioned and unconditioned responses ([3]; I.P.): reduces the conditioned responses without diminishing the unconditioned escape responses
hypokinesia in mice [4]: provokes in mice a hypokinesia at all the doses studied
antagonism of the effects of d-amphetamine ([5]; 20 mg/kg compound against 1 mg/kg I.P. d-amphetamine): antagonise
antagonism of the effects of d-amphetamine ([5]; 40 mg/kg compound against 3 mg/kg I.P. d-amphetamine): antagonise
inhibition of the motor phenomena due to d-amphetamine ([5]; joint administration with d-amphetamine 1 to 3 mg/kg I.P.): inhibition of the motor phenomena due to the amphetamine
average number of rotations in 45 minutes ([6]; 12.5 mg/kg S.C.): 182 rotations
average number of rotations in 45 minutes ([6]; 25 mg/kg S.C.): 380 rotations
average number of rotations in 45 minutes ([6]; 50 mg/kg P.O.): 543 rotations
rotations in the unilaterally pithed rat ([6]; right side, opposite side to the lesion): numerous rotations
central effects observed in the electro-encephalogram [7]: central depressant effects
total sleep (slow sleep and paradoxal sleep), words ([7]; 30 mg/kg I.P.): increase in total sleep
increase in total sleep ([7]; 30 mg/kg I.P., second hour following administration): 100%

c1cnc(N2CCN(Cc3ccc4c(c3)OCO4)CC2)nc1 [Piribedil, reference compound]
total stereotypy score ([2]; 20 mg/kg I.P.): 145
total stereotypy score ([2]; 40 mg/kg I.P.): 246
stimulating activity on the dopaminergic post-synaptic receptors of the striatum [2]: stimulates these receptors
Crossings, % change in relation to control animals ([3]; 6.25 mg/kg I.P.): +50%
Escape response, % in relation to control animals ([3]; 6.25 mg/kg I.P.): +50%
Escape response, % over 20 ([3]; 6.25 mg/kg I.P.): 3%
Escape response, Number over 20 ([3]; 6.25 mg/kg I.P.): 0.6
Shunning response, % in relation to control animals ([3]; 6.25 mg/kg I.P.): -1%
Shunning response, % over 20 ([3]; 6.25 mg/kg I.P.): 97%
Shunning response, Number over 20 ([3]; 6.25 mg/kg I.P.): 19.4
Crossings, Number over 20 ([3]; 6.25 mg/kg I.P., * = P < 0.05): 29.5
Crossings, % change in relation to control animals ([3]; 12.50 mg/kg I.P.): +47%
Escape response, % in relation to control animals ([3]; 12.50 mg/kg I.P.): 0%
Escape response, % over 20 ([3]; 12.50 mg/kg I.P.): 2%
Escape response, Number over 20 ([3]; 12.50 mg/kg I.P.): 0.4
Shunning response, % in relation to control animals ([3]; 12.50 mg/kg I.P.): 0%
Shunning response, % over 20 ([3]; 12.50 mg/kg I.P.): 98%
Shunning response, Number over 20 ([3]; 12.50 mg/kg I.P.): 19.1
Crossings, Number over 20 ([3]; 12.50 mg/kg I.P., * = P < 0.05): 28.9
Crossings, % change in relation to control animals ([3]; 25 mg/kg I.P.): +148%
Escape response, % in relation to control animals ([3]; 25 mg/kg I.P.): +149%
Escape response, % over 20 ([3]; 25 mg/kg I.P.): 5%
Escape response, Number over 20 ([3]; 25 mg/kg I.P.): 1
Shunning response, % in relation to control animals ([3]; 25 mg/kg I.P.): -3%
Shunning response, % over 20 ([3]; 25 mg/kg I.P.): 95%
Shunning response, Number over 20 ([3]; 25 mg/kg I.P.): 19
Crossings, Number over 20 ([3]; 25 mg/kg I.P., * = P < 0.05): 48.9
Crossings, % change in relation to control animals ([3]; 50 mg/kg I.P.): +118%
Escape response, % in relation to control animals ([3]; 50 mg/kg I.P.): +50%
Escape response, % over 20 ([3]; 50 mg/kg I.P.): 3%
Shunning response, % in relation to control animals ([3]; 50 mg/kg I.P.): -1%
Shunning response, % over 20 ([3]; 50 mg/kg I.P.): 97%
Crossings, Number over 20 ([3]; 50 mg/kg I.P., * = P < 0.05): 42.9
Escape response, Number over 20 ([3]; 50 mg/kg I.P., * = P < 0.05): 0.6
Shunning response, Number over 20 ([3]; 50 mg/kg I.P., * = P < 0.05): 19.4
Crossings, % change in relation to control animals ([3]; 75 mg/kg I.P.): +115%
Escape response, % in relation to control animals ([3]; 75 mg/kg I.P.): +633%
Escape response, % over 20 ([3]; 75 mg/kg I.P.): 11%
Shunning response, % in relation to control animals ([3]; 75 mg/kg I.P.): -10%
Shunning response, % over 20 ([3]; 75 mg/kg I.P.): 89%
Crossings, Number over 20 ([3]; 75 mg/kg I.P., * = P < 0.05): 33.5
Escape response, Number over 20 ([3]; 75 mg/kg I.P., * = P < 0.05): 2.2
Shunning response, Number over 20 ([3]; 75 mg/kg I.P., * = P < 0.05): 17.8
effect on the shunning responses ([3]; 6.25 to 75 mg/kg I.P.): no agonistic effect on the shunning responses
average number of rotations in 45 minutes ([6]; 50 mg/kg P.O.): 256 rotations
reduction of total sleep ([7]; E.E.G., same dose (30 mg/kg I.P.)): 50%

From patent US4613601A, “(1-benzodioxin-6-ylmethyl)-4-substituted piperazines having antipsychotic activity” (Adir, S.A.R.L., priority 1982, dated 1986)
